Measurements: patent US7109215B2, “Compounds possessing neuronal activity” (Vertex Pharmaceuticals Incorporated, priority 1997, dated 2006)
pKi: −log10 of the molar value. Marks after values point to notes of the source that are not given here.

Experiments:
[1] = test system: pheochromocytoma PC12 cells; experiment: Neurite outgrowth quantitation in PC12 cell system; format: cell-based, rat; conditions: for Neurite outgrowth, visual scale of 0 to 4: 1–5 ng/ml NGF, 72 hours
Experimental: In order to directly determine the neurotrophic activity of compounds described in this invention, the neurite outgrowth assay was carried out with pheochromocytoma PC12 cells as described by Lyons et al. (1994).
PC12 cells were maintained at 37° C. and 5% CO2 in Dulbecco's modified Eagle's medium (DMEM) supplemented with 10% heat-inactivated horse serum, 5% heat-inactivated fetal bovine serum (FBS), and 1% glutamate.
The cells were then plated at […] in 96 well plates coated with […] rat tail collagen and allowed to attach overnight. The medium was then replaced with DMEM, 2% heat-inactivated horse serum, 1% glutamate, 1–5 ng/ml of NGF (Sigma) and varying concentrations of the compounds of this invention (0.01 nM–10000 nM). The background control culture was administered with […] of NGF alone without compound. Positive control cultures were administered with high concentration of NGF (50 ng/ml). The cells were then incubated at 37° C. at 5% CO2 for 72 hours, fixed with 3% formaldehyde and nerve outgrowth was determined visually on a scale of 0 to 4.

FKBP = FKBP (Homo sapiens, UniProt P62942); experiment: Rotamase inhibition assay (chymotrypsin-coupled PPIase assay); format: biochemical; conditions: 15 nM FKBP, 30 μM Suc-Ala-Leu-Pro-Phe-pNA, 15° C.
Experimental: Inhibition of FKBP enzyme activity was determined in the PPIase assay described in S. T. Park et al., J. Biol. Chem., 267, pp. 3316–24 (1992), the disclosure of which is herein incorporated by reference. This is a chymotrypsin-coupled assay in which FKBP catalyzes the cis to trans isomerization of the Leu-Pro bond in the peptide substrate Suc-Ala-Leu-Pro-Phe-pNA. The trans form, but not the cis form, is cleavable by chymotrypsin. The release Phe-pNA was monitored by absorbance at 400 nm. Chymotrypsyn cleavage is very rapid and therefore cis-to-trans isomerization is rate-limiting.
Each reaction mix consisted of 0.1 M Tris buffer, pH 7.8, 15 nM FKBP, 30 μM substrate and 0.5 nM to 10 μM of compound to be tested diluted in Me2SO. The mixture was incubated at 15° C. for 5 minutes and then reaction was initiated by addition of chymotrypsin (100 μg/ml final concentration) and followed spectrophotometrically for 5 minutes. Total reaction volume was 1 ml.

HL60/Vinc cells = experiment: MDR sensitization (reversal) assay, doxorubicin, XTT viability; format: cell-based, human; conditions: IC50 doxorubicin alone / IC50 doxorubicin plus compound
Experimental: We carried out multidrug resistance reversal (MDR) assays using L1210vMDRC.06 or HL60/Vinc cell lines. L1210vMDRC.06 are L1210 mouse leukemia cells transduced with the pHaMDR1/A retrovirus carrying a MDR1 cDNA, as described by Pastan et al., Proc. Natl. Acad. Sci. USA, 85, pp. 4486–4490 (1988). The L1210vMDRC.06 multidrug resistant line is a cell line that has been drug-selected by culturing transfected cells in 0.06 μg/ml colchicine. The HL60/Vinc human promyleocytic leukemia cell line is a multidrug resistant cell line derived from HL60 drug-sensitive parental cells by selection in increasing concentrations of vincristine.
Assays using HL60/Vinc cells were performed by plating cells in 96 well microtiter plates at a concentration of 4×10^4 cells/well. The cells were then exposed to various concentrations of doxorubicin (9 nM to 6.7 μM) in the presence or absence of various compounds of this invention at various concentrations (0.5, 1.0, 2.5, 5.0 or 10 μM) as described in U. Germann et al., Anti-Cancer Drugs, 8, pp. 141–155 (1997). After culturing the cells for 3 days, their viability was quantitated using the XTT dye method to assess mitochondrial function (Roehm et al., supra). Results were expressed as a ratio of the IC50 for doxorubicin alone to the IC50 for doxorubicin plus compound. In all assays the intrinsic antiproliferative or cytotoxicity activity of the MDR inhibitors was also determined for HL60/Vinc cells.

Sequence of FKBP (P62942 whole entry): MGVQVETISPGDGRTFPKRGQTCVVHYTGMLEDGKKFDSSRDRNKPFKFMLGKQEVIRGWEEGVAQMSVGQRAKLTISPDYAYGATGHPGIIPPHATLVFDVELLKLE

SMILES | Neurite outgrowth, visual scale of 0 to 4 ([1]; compound 0.01 nM) | Neurite outgrowth, visual scale of 0 to 4 ([1]; compound 0.1 nM) | Neurite outgrowth, visual scale of 0 to 4 ([1]; compound 1 nM) | Neurite outgrowth, visual scale of 0 to 4 ([1]; compound 10 nM) | Neurite outgrowth, visual scale of 0 to 4 ([1]; compound 100 nM) | Neurite outgrowth, visual scale of 0 to 4 ([1]; compound 1000 nM) | Neurite outgrowth, visual scale of 0 to 4 ([1]; compound 10000 nM) | pKi (FKBP) | MDR Ratio (HL60/Vinc cells; compound 2.5 μM) | MDR Ratio (HL60/Vinc cells; compound 10 μM) | Neurite outgrowth over background control cultures (in words) ([1]; PC12 assay)
CNC(Cc1ccccc1)C(=O)N(C)C(CCCc1cccnc1)CCCc1cccnc1 (stereo not shown) [Compound 109] | 3* | 4* | 4* | 3* | 2* | 4* | 3* | – | – | – | –
O=C(OCc1ccccc1)C1CCCCN1 (stereo not shown) [Compound 101] | – | – | – | – | – | – | – | < 4.30 | – | – | –
CNC(Cc1ccccc1)C(=O)N(C)CCCc1cccnc1 (stereo not shown) [Compound 108] | – | – | – | 0 | 3 | 0 | – | < 4.60 | 0.4 | – | –
CN(C)c1ccc(/N=N\c2ccc(S(=O)(=O)N(C)[C@@H](Cc3ccccc3)C(=O)N(C)C(CCCc3cccnc3)CCCc3cccnc3)cc2)cc1 [Compound 6] | – | – | – | 4* | 2* | 3* | – | – | – | 17.7 | –
O=C(OC(CCCc1cccnc1)CCCc1cccnc1)C1CCCCN1 (stereo not shown) [Compound 102] | 3* | 3* | 4* | 4** | 2** | 3** | 4* | – | 1.2 | – | –
CN(C(=O)[C@H](Cc1ccccc1)N(C)S(=O)(=O)/C=C/c1ccccc1)C(CCCc1cccnc1)CCCc1cccnc1 [Compound 13] | – | – | – | 3* | 3* | 4* | – | – | 19.3 | – | –
CN(C)c1cccc2c(S(=O)(=O)N(C)[C@@H](Cc3ccccc3)C(=O)N(C)C(CCCc3cccnc3)CCCc3cccnc3)cccc12 [Compound 7] | – | – | – | 2* | 3* | 3* | – | – | – | 21.9 | –
COc1ccc(S(=O)(=O)N(C)[C@@H](Cc2ccccc2)C(=O)N(C)C(CCCc2cccnc2)CCCc2cccnc2)cc1 [Compound 18] | – | – | – | 3* | 4* | 4* | – | < 4.30 | 10.8 | – | –
COc1ccc(S(=O)(=O)N(C)[C@@H](Cc2ccccc2)C(=O)N(C)C(CCCc2cccnc2)CCCc2cccnc2)cc1OC [Compound 17] | – | – | – | 3* | 3* | 4* | – | – | 14.6 | – | –
CN(C(=O)[C@H](Cc1ccccc1)N(C)S(=O)(=O)Cc1ccccc1)C(CCCc1cccnc1)CCCc1cccnc1 [Compound 12] | – | – | – | 3* | 3* | 4* | – | – | 22.6 | – | –
CN(C(=O)[C@H](Cc1ccccc1)N(C)S(=O)(=O)c1ccc(C#N)cc1)C(CCCc1cccnc1)CCCc1cccnc1 [Compound 16] | – | – | – | 3* | 4* | 3* | – | – | 19.9 | – | –
O=C(OC(CCCc1ccncc1)CCCc1cccnc1)C1CCCCN1Cc1ccncc1 (stereo not shown) [Compound 113] | – | – | – | 3* | 4* | 4* | – | < 4.30 | 2.3 | – | –
CC(=O)Nc1ccc(S(=O)(=O)N(C)[C@@H](Cc2ccccc2)C(=O)N(C)C(CCCc2cccnc2)CCCc2cccnc2)cc1 [Compound 15] | – | – | – | 3* | 3* | 3* | – | – | 2.4 | – | –
CN(C(=O)[C@H](Cc1ccccc1)N(C)S(=O)(=O)c1ccc(F)cc1)C(CCCc1cccnc1)CCCc1cccnc1 [Compound 14] | – | – | – | 3* | 2* | 4* | – | – | 19.9 | – | –
CN(C(=O)[C@H](Cc1ccccc1)N(C)S(=O)(=O)CS(C)(=O)=O)C(CCCc1cccnc1)CCCc1cccnc1 [Compound 11] | – | – | – | 1* | 3* | 3* | – | – | 1.7 | – | –
CN(CCCc1cccnc1)C(=O)C1CCCCN1 (stereo not shown) [Compound 110] | – | – | – | – | 3* | 0* | – | < 4.60 | 1.1 | – | –
CNC(Cc1ccccc1)C(=O)N(C)CCc1ccccn1 (stereo not shown) [Compound 107] | – | – | – | – | 3* | 0* | – | < 4.60 | 0.9 | – | –
CN(CCCc1cccnc1)C(=O)[C@@H]1CCCCN1S(=O)(=O)c1ccc(N)cc1 [Compound 3] | – | – | – | 2*** | 4*** | 4*** | – | < 4.30 | 0.6 | – | –
CN(CCc1ccccn1)C(=O)C1CCCCN1 (stereo not shown) [Compound 106] | – | – | – | – | 1* | 2* | – | < 4.30 | 1.2 | – | –
CN(C(=O)[C@H](Cc1ccccc1)N(C)S(=O)(=O)c1ccc(N)cc1)C(CCCc1cccnc1)CCCc1cccnc1 [Compound 4, (S)-(N-methyl)-2-(methyl-(4-amino-benzenesulfanilamido))-3-phenyl-N-(4-(pyridin-3-yl)-1-(3-(pyridin-3-yl)propyl)butyl) propionamide] | – | – | – | 3* | 3* | 4* | – | < 4.60 | 6.2 | – | –
CN1CCCCC1C(=O)OC(CCCc1ccncc1)CCCc1cccnc1 (stereo not shown) [Compound 111] | 4* | 4* | 3* | 2** | 4** | 4** | 4* | < 4.30 | 1.2 | – | –
O=C(NCc1cccnc1)C1CCCCN1 (stereo not shown) [Compound 103] | – | – | – | 0 | 0 | 0 | – | < 4.30 | 0.7 | – | Negative results
CN(C(=O)[C@H](Cc1ccccc1)N(C)S(=O)(=O)c1ccc(Nc2ccc([N+](=O)[O-])cc2[N+](=O)[O-])cc1)C(CCCc1cccnc1)CCCc1cccnc1 [Compound 5] | – | – | – | 2* | 3* | 3* | – | – | – | 30.4 | –
CN(CCc1ccccn1)C(=O)[C@@H]1CCCCN1S(=O)(=O)c1ccc(N)cc1 [Compound 1, N-(4-aminobenzenesulfonamido)-(S)-piperidine-2-carboxylic acid-2-((N-methyl)-2-pyridylethyl) amide] | – | – | – | 3*** | 1*** | 3*** | – | – | 0.6 | – | –
